# Molecular target: Human RSK2 (Homo sapiens (Human), UniProt P51812)
# Assay: Human RSK2 Assay (Kinase Glo Plus, residual ATP)
# Type: biochemical
# Conditions: 0.75 nM His-RSK2, 0.75 μM ATP, 1.0 μM S6 Kinase/RSK Substrate Peptide 1
# Experimental: Experimental Method A: Human RSK2 Assay
# Compounds are assessed for their ability to inhibit the phosphorylation of a substrate peptide by RSK2.
# Human RSK2 protein, purchased from Invitrogen, is used to measure kinase activity utilizing Kinase Glo Plus (Promega) a homogeneous assay technology, which uses a luciferin-luciferase based ATP detection reagent to quantify residual ATP. The assay is performed using 0.75 nM His-RSK2, 0.75 μM ATP and 1.0 μM S6 Kinase/RSK Substrate Peptide 1 (Upstate, catalog #12-124), in assay buffer consisting of 25 mM HEPES, pH 7.5, 10 mM MgCl2, 5 mM MnCl2, 50 mM KCl, 0.2% BSA, 0.01% CHAPS, 100 μM Na3VO4, 0.5 mM DTT, and 1% DMSO. Solutions of test compounds at various concentrations are prepared by 1:3 fold serial dilution of a 1 mM solution of compound in DMSO. The DMSO solutions are further diluted with assay buffer to a final concentration of DMSO of 5%.
# The assay is performed in a 384 well, white, non-binding plate (Corning, catalogue #3574). Solutions of test compounds (10 μL) are transferred to a dry assay plate, followed by addition of 20 μL kinase and 20 μL ATP+Substrate Peptide 1 described above. The kinase reaction mixture is incubated for 90 minutes at 28° C. followed by addition of 30 μL of ATP detection reagent for 15 minutes at room temperature. The relative light unit (RLU) signal is measured on a LJL Analyst (Molecular Devices) in luminescence mode using 384 aperture. The RLU signals were converted to percent of control (POC) values using the formula: POC=100*(BCTRL−Signal)/(BCTRL−PCTRL), where Signal is the test well RLU signal, BCTRL is the average of background (negative control), which consists of ATP+peptide and compound buffer, well signals on the plate, and PCTRL is the average of positive control, which consists of kinase, ATP+peptide, and compound buffer, well signals on the plate. For concentration-responsive compounds, POC as a function of test compound concentration are fitted to a 4-parameter logistic equation of the form: Y=A+(B−A)/[1+(x/C)^D], where A, B, C, and D are fitted parameters (parameter B is fixed at zero POC), and x and y are the independent and dependent variables, respectively. The IC50 (50% inhibitory concentration) is determined as the inflection point parameter, C. Experimental Method B: Human RSK2 Trans-Reporter Assay
# Chain of Human RSK2 (P51812 whole entry): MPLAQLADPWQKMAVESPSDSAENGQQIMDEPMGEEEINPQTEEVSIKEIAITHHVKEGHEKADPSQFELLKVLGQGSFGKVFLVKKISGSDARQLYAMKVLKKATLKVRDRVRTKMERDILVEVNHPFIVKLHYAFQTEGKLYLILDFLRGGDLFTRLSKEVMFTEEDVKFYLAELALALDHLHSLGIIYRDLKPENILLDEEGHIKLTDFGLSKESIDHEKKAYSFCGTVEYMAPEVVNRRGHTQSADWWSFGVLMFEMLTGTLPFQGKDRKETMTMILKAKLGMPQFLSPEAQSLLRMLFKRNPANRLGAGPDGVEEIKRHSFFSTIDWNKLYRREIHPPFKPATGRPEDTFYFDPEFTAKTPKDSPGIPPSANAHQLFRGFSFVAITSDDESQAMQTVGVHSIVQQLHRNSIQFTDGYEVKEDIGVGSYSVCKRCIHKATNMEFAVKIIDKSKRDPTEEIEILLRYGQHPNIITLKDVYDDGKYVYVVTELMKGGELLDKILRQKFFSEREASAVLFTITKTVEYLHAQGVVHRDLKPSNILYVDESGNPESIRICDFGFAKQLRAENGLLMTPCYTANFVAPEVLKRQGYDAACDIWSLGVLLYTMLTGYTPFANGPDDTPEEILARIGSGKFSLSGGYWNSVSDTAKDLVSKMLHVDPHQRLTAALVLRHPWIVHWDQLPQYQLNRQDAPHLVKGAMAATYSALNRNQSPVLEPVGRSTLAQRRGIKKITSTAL
row,SMILES,IC50 [µM]
1,"CC(C)n1c(NC(=O)c2ccc3nc4n(c3c2)C(C)(C)CCNC4=O)nc2ccccc21 [Example 18, 5,5-dimethyl-1-oxo-N-[1-(propan-2-yl)-1H-benzimidazol-2-yl]-2,3,4,5-tetrahydro-1H-[1,4]diazepino[1,2-a]benzimidazole-8-carboxamide]",0.0047
2,"O=C(Nc1cc(-c2ccccc2)no1)c1ccc2nc3n(c2c1)CCCNC3=O [Example 19, 1-oxo-N-(3-phenyl-1,2-oxazol-5-yl)-2,3,4,5-tetrahydro-1H-[1,4]diazepino[1,2-a]benzimidazole-8-carboxamide]",0.29
3,"Cc1cc(NC(=O)c2ccc3nc4n(c3c2)CCCNC4=O)no1 [Example 20, N-(5-methyl-1,2-oxazol-3-yl)-1-oxo-2,3,4,5-tetrahydro-1H-[1,4]diazepino[1,2-a]benzimidazole-8-carboxamide]",1.55
4,"CC(C)(C)c1cc(NC(=O)c2ccc3nc4n(c3c2)CCCNC4=O)no1 [Example 21, N-(5-tert-butyl-1,2-oxazol-3-yl)-1-oxo-2,3,4,5-tetrahydro-1H-[1,4]diazepino[1,2-a]benzimidazole-8-carboxamide]",2
5,"O=C(Nc1cccc(-c2c[nH]cn2)c1)c1ccc2nc3n(c2c1)CCCNC3=O [Example 22, N-[3-(1H-imidazol-4-yl)phenyl]-1-oxo-2,3,4,5-tetrahydro-1H-[1,4]diazepino[1,2-a]benzimidazole-8-carboxamide]",1.7
6,"O=C(Nc1cnc2ccccc2c1)c1ccc2cc3n(c2n1)CCCNC3=O [Example 23, 6-oxo-N-(quinolin-3-yl)-7,8,9,10-tetrahydro-6H-pyrido[3′,2′:4,5]pyrrolo[1,2-a][1,4]diazepine-2-carboxamide]",0.0092
7,"Cc1nc(-c2cccc(NC(=O)c3ccc4cc5n(c4n3)CCCNC5=O)c2)cs1 [Example 24, N-[3-(2-methyl-1,3-triazol-4-yl)phenyl]-6-oxo-7,8,9,10-tetrahydro-6H-pyrido[3′,2′:4,5]pyrrolo[1,2-a][1,4]diazepine-2-carboxamide]",0.056
8,"O=C(Nc1cccc(F)c1)c1ccc2cc3n(c2n1)CCCNC3=O [Example 25, N-(3-fluorophenyl)-6-oxo-7,8,9,10-tetrahydro-6H-pyrido[3′,2′:4,5]pyrrolo[1,2-a][1,4]diazepine-2-carboxamide]",0.02
9,"NC(=O)c1ccccc1NC(=O)c1ccc2cc3n(c2n1)CCCNC3=O [Example 26, N-(2-carbamoylphenyl)-6-oxo-7,8,9,10-tetrahydro-6H-pyrido[3′,2′:4,5]pyrrolo[1,2-a][1,4]diazepine-2-carboxamide]",0.0023
10,"O=C(Nc1cccnc1)c1ccc2cc3n(c2n1)CCCNC3=O [Example 27, 6-oxo-N-(pyridin-3-yl)-7,8,9,10-tetrahydro-6H-pyrido[3′,2′:4,5]pyrrolo[1,2-a][1,4]diazepine-2-carboxamide]",0.037
11,"CCOC(=O)c1nc(NC(=O)c2ccc3cc4n(c3n2)CCCNC4=O)cn1C [Example 28, ethyl 1-methyl-4-{[(6-oxo-7,8,9,10-tetrahydro-6H-pyrido[3′,2′:4,5]pyrrolo[1,2-a][1,4]diazepin-2-yl)carbonyl]amino}-1H-imidazole-2-carboxylate]",0.09
12,"CC(C)n1ncc2cc(NC(=O)c3ccc4cc5n(c4n3)C(C)CCNC5=O)cnc21 (centres unmarked) [Example 29, 10-methyl-6-oxo-N-[1-(propan-2-yl)-1H-pyrazolo[3,4-b]pyridin-5-yl]-7,8,9,10-tetrahydro-6H-pyrido[3′,2′:4,5]pyrrolo[1,2-a][1,4]diazepine-2-carboxamide]",0.0021
13,"CC(C)n1ncc2cc(NC(=O)c3ccc4cc5n(c4n3)CCCNC5=O)cnc21 [Example 30, 6-oxo-N-[1-(propan-2-yl)-1H-pyrazolo[3,4-b]pyridin-5-y]-7,8,9,10-tetrahydro-6H-pyrido[3′,2′:4,5]pyrrolo[1,2-a][1,4]diazepine-2-carboxamide]",0.025
14,"CC(C)n1ncc2cc(NC(=O)c3ccc4cc5n(c4n3)CC(C)(C)CNC5=O)cnc21 [Example 31, 9,9-dimethyl-6-oxo-N-[1-(propan-2-yl)-1H-pyrazolo[3,4-b]pyridin-5-yl]-7,8,9,10-tetrahydro-6H-pyrido[3′,2′:4,5]pyrrolo[1,2-a][1,4]diazepine-2-carboxamide]",0.105
15,"CC1CCNC(=O)c2cc3ccc(C(=O)Nc4cnc5c(cnn5C5CCOCC5)c4)nc3n21 (centres unmarked) [Example 32, 10-methyl-6-oxo-N-[1-(tetrahydro-2H-pyran-4-yl)-1H-pyrazolo[3,4-b]pyridin-5-yl]-7,8,9,10-tetrahydro-6H-pyrido[3′,2′:4,5]pyrrolo[1,2-a][1,4]diazepine-2-carboxamide]",0.0023
16,"O=C(Nc1cnc2c(cnn2C2CCOCC2)c1)c1ccc2cc3n(c2n1)CCCNC3=O [Example 33, 6-oxo-N-[1-(tetrahydro-2H-pyran-4-yl)-1H-pyrazolo[3,4-b]pyridin-5-yl]-7,8,9,10-tetrahydro-6H-pyrido[3′,2′:4,5]pyrrolo[1,2-a][1,4]diazepine-2-carboxamide]",0.02
17,"CC1(C)CNC(=O)c2cc3ccc(C(=O)Nc4cnc5c(cnn5C5CCOCC5)c4)nc3n2C1 [Example 34, 9,9-dimethyl-6-oxo-N-[1-(tetrahydro-2H-pyran-4-yl)-1H-pyrazolo[3,4-b]pyridin-5-yl]-7,8,9,10-tetrahydro-6H-pyrido[3′,2′:4,5]pyrrolo[1,2-a][1,4]diazepine-2-carboxamide]",0.062
18,"CC1CCNC(=O)c2cc3ccc(C(=O)Nc4cnc5c(cnn5CC5CCOC5)c4)nc3n21 (centres unmarked) [Example 35, 10-methyl-6-oxo-N-[1-(tetrahydrofuran-3-ylmethyl)-1H-pyrazolo[3,4-b]pyridin-5-yl]-7,8,9,10-tetrahydro-6H-pyrido[3′,2′:4,5]pyrrolo[1,2-a][1,4]diazepine-2-carboxamide]",0.0016
19,"O=C(Nc1cnc2c(cnn2CC2CCOC2)c1)c1ccc2cc3n(c2n1)CCCNC3=O (centres unmarked) [Example 36, 6-oxo-N-[1-(tetrahydrofuran-3-ylmethyl)-1H-pyrazolo[3,4-b]pyridin-5-yl]-7,8,9,10-tetrahydro-6H-pyrido[3′,2′:4,5]pyrrolo[1,2-a][1,4]diazepine-2-carboxamide]",0.013
20,"CC1(C)CNC(=O)c2cc3ccc(C(=O)Nc4cnc5c(cnn5CC5CCOC5)c4)nc3n2C1 (centres unmarked) [Example 37, 9,9-dimethyl-6-oxo-N-[1-(tetrahydrofuran-3-ylmethyl)-1H-pyrazolo[3,4-b]pyridin-5-yl]-7,8,9,10-tetrahydro-6H-pyrido[3′,2′:4,5]pyrrolo[1,2-a][1,4]diazepine-2-carboxamide]",0.025
21,"Cc1ccnc(NC(=O)c2ccc3cc4n(c3n2)CCCNC4=O)c1 [Example 38, N-(4-methylpyridin-2-yl)-6-oxo-7,8,9,10-tetrahydro-6H-pyrido[3′,2′:4,5]pyrrolo[1,2-a][1,4]diazepine-2-carboxamide]",0.0038
22,"CC1(C)CNC(=O)c2cc3ccc(C(=O)Nc4cnc5ccccc5c4)nc3n2C1 [Example 39, 9,9-dimethyl-6-oxo-N-(quinolin-3-yl)-7,8,9,10-tetrahydro-6H-pyrido[3′,2′:4,5]pyrrolo[1,2-a][1,4]diazepine-2-carboxamide]",0.091
23,"CC1CCNC(=O)c2cc3ccc(C(=O)Nc4cnn(C)c4)nc3n21 (centres unmarked) [Example 40, 10-methyl-N-(1-methyl-1H-pyrazol-4-yl)-6-oxo-7,8,9,10-tetrahydro-6H-pyrido[3′,2′:4,5]pyrrolo[1,2-a][1,4]diazepine-2-carboxamide]",0.00078
24,"Cn1cc(NC(=O)c2ccc3cc4n(c3n2)CCCNC4=O)cn1 [Example 41, N-(1-methyl-1H-pyrazol-4-yl)-6-oxo-7,8,9,10-tetrahydro-6H-pyrido[3′,2′:4,5]pyrrolo[1,2-a][1,4]diazepine-2-carboxamide]",0.0048
25,"Cn1cc(NC(=O)c2ccc3cc4n(c3n2)CC(C)(C)CNC4=O)cn1 [Example 42, 9,9-dimethyl-N-(1-methyl-1H-pyrazol-4-yl)-6-oxo-7,8,9,10-tetrahydro-6H-pyrido[3′,2′:4,5]pyrrolo[1,2-a][1,4]diazepine-2-carboxamide]",0.072
26,"CC1CCNC(=O)c2cc3ccc(C(=O)Nc4cnn(C(C)(C)C)c4)nc3n21 (centres unmarked) [Example 43, N-(1-tert-butyl-1H-pyrazol-4-yl)-10-methyl-6-oxo-7,8,9,10-tetrahydro-6H-pyrido[3′,2′:4,5]pyrrolo[1,2-a][1,4]diazepine-2-carboxamide]",0.0011

# From US9073926B2, “Heterocyclic compounds containing a pyrrolopyridine or benzimidazole core” (Boehringer Ingelheim International GmbH, priority 2009, dated 2015)
